Entries after “also recorded” stand apart in the source; their conditions may differ.
Tests used:
[1] = test system: human THP-1 cells; experiment: TNF production by PMA-differentiated human THP-1 cells (ELISA); type: cell-based; conditions: 4 hours
Experimental: (§1) For murine BMDCs, bone morrow cells were cultured in Petri dishes in 10 ml DMEM cell culture medium containing 10 ng/ml of murine GM-CSF (R&D Systems). On day 3 of culture, this was replaced with fresh GM-CSF medium. Loosely adherent cells were transferred to a fresh Petri dish and cultured for an additional 4 d. Human PBMC were purchased from Stemcell Technologies. THP-1 (ATCC) cells were differentiated by treatment with 100 nM PMA (Sigma) in RPMI cell culture medium [RPMI containing 10% vol/vol FBS (Gemini Bio Products), 1% penicillin and streptomycin (Life Technologies)] for 24 hours. After that, cells were washed with PBS and cultured in fresh RPMI cell culture medium for 24 hours before use in studies.
(§2) Cells were seeded onto 96-well plates at 1×10^5 cells per well and stimulated with a Diprovocim (dissolved in DMSO, and final DMSO concentrations (0.2%) were kept constant in all experiments) for 4 h. Mouse TNF, IL-6, or IFN-β, or human TNF in the supernatants were measured by ELISA kits according to the manufacturer's instructions (eBioscience and PBL Assay Science). Pretreatment with 20 μg/ml anti-TLR1, anti-TLR2 or isotype control antibody (eBioscience) was for 1 hour. Unless otherwise indicated, mouse cells were from wild type C57BL/6J mice.

[2] = test system: mouse BMDC; experiment: TNF production by mouse bone marrow-derived dendritic cells (ELISA); type: cell-based; conditions: 4 hours, read-out: EC50, dose-dependent TNF production
Experimental: as §1, §2

[3] = target: T1, mouse TLR1/TLR2 heterodimer (Mus musculus, UniProt Q9EPQ1+Q9QUN7); experiment: TNF induction in peritoneal macrophages from mice deficient in TLR signaling components; type: cell-based; conditions: 500 nM, 4 hours, vs C57BL/6J cells
T1 construct: endogenous in cells; host or cells: thioglycollate-elicited peritoneal macrophages of C57BL/6J mice (wild type and knockout/mutant genotypes)
T1 sequence (Q9EPQ1 26-795): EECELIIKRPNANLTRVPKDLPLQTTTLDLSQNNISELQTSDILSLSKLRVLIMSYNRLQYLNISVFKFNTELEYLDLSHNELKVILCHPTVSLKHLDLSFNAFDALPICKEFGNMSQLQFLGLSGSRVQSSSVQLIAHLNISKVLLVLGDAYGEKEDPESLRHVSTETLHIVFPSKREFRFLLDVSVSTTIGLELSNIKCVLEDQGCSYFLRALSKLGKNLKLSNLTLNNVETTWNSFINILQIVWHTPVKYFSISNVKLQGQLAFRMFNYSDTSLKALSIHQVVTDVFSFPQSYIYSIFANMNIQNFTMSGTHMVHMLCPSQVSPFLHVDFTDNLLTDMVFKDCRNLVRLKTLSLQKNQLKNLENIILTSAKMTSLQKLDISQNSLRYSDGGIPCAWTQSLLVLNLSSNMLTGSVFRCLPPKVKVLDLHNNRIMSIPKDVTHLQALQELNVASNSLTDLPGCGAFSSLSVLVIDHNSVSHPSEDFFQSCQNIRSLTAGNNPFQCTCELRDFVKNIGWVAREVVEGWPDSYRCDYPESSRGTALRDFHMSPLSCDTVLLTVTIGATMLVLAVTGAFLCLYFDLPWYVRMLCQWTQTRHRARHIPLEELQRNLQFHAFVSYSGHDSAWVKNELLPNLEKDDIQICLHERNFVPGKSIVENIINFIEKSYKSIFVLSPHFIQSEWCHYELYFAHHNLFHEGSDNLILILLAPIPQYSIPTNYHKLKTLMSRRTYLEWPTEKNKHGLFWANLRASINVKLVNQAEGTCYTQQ
T1 sequence (Q9QUN7 25-784): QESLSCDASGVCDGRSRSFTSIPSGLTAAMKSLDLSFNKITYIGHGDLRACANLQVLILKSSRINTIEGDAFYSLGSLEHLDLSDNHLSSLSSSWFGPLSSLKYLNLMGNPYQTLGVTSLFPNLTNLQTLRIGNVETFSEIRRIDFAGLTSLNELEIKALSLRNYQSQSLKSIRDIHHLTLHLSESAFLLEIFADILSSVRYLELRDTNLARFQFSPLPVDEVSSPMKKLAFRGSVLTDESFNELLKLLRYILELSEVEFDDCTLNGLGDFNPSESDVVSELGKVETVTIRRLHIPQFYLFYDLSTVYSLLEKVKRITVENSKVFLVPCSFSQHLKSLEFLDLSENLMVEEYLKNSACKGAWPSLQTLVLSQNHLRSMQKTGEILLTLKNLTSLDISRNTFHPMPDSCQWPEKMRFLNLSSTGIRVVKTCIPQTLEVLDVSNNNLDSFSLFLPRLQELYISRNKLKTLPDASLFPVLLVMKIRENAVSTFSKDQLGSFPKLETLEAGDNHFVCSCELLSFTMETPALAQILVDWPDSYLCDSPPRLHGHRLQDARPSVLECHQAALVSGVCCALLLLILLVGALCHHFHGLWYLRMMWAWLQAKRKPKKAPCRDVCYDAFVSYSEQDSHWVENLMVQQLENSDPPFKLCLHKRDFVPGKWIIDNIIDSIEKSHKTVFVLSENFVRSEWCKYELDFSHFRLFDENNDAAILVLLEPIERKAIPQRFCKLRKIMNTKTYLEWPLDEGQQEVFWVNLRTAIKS
Source text: (§3) C57BL/6J, Tlr2^−/−, Myd88^−/− and OT-I mice were purchased from The Jackson Laboratory. Ly96^−/− (MD-2^−/−) mice were from RIKEN BRC. Tlr4^1ps3/lps3, Tlr6^int/int, Tlr7^rsql/rsql, Tirapt^tor/tor, Ticam1^Lps2/Lps2, Ticam1^Lps2/Lps2/Irak4^otiose/otiose mice were generated on a pure C57BL/6J background by ENU mutagenesis and are described at http://mutagenetix.utsouthwestern.edu.
(§4) Tlr1^−/− mice were created by CRISPR/Cas 9 gene targeting. Female C57BL/6J mice were superovulated by injection of 6.5 U pregnant mare serum gonadotropin (PMSG; Millipore), followed by injection of 6.5 U human chorionic gonadotropin (hCG; Sigma-Aldrich) 48 hours later. The superovulated mice were subsequently mated overnight with C57BL/6J male mice. The following day, fertilized eggs were collected from the oviducts and in vitro-transcribed Cas9 mRNA (50 ng/μl) and Tlr1 small base-pairing guide RNA (50 ng/μl; 5′-[…]-3′; SEQ ID NO: XX) were injected into the cytoplasm or pronucleus of the embryos. […]
as §2, with “Pretreatment with 20 μg/ml anti-TLR1, anti-TLR2 or isotype control antibody (eBioscience) was for 1 hour. Unless otherwise indicated, mouse cells were from wild type C57BL/6J mice.” left out

[4] = test system: mouse TLR1/TLR2 heterodimer; experiment: as above; type: cell-based; conditions: 500 nM, 4 hours, vs C57BL/6J cells
Source text: as §3, §4
as §2, with “Pretreatment with 20 μg/ml anti-TLR1, anti-TLR2 or isotype control antibody (eBioscience) was for 1 hour. Unless otherwise indicated, mouse cells were from wild type C57BL/6J mice.” left out

[5] = test system: MAPK and canonical NF-κB signaling; experiment: Western blotting of mouse peritoneal macrophage lysates; type: cell-based; conditions: mouse peritoneal macrophages, 500 nM
Experimental: Mouse peritoneal macrophages or human THP-1 cells (1×10^6 per well) were stimulated in 12-well plates with a Diprovocim at 500 nM for mouse cells or 5 nM for human cells for the indicated times and lysed directly in sample buffer (Sigma). Cell lysates were separated by SDS-PAGE and transferred to nitrocellulose membranes. Membranes were probed with the following antibodies: phospho-IKKα (Ser176)/IKKβ (Ser177), IκBα, phospho-p38 (Thr180/Tyr182), phospho-JNK (Thr183/Tyr185), phospho-ERK1/2 (Thr202/Tyr204) (Cell Signaling Technology) and β-Actin (Sigma).

[6] = test system: OVA peptide-pulsed target cells; experiment: In vivo CTL killing assay; design: species or system mouse; conditions: Tlr1−/− or Tlr2−/− mice
[7] = test system: B16-OVA and B16F10 tumor cells; experiment: Re-challenge of tumor-free survivors with B16-OVA and B16 cells; type: in vivo, mouse; conditions: survivors of Diprovocim+OVA plus anti-PD-L1, no further therapy
[8] = test system: B16-OVA melanoma; experiment: Tumor-infiltrating leukocyte analysis in B16-OVA tumors (flow cytometry); type: in vivo, mouse
Experimental: A total of 2×10^5 B16-OVA cells in 100 μL PBS were injected s.c. into the flank of each mouse to establish tumors (n=6 mice per treatment). 10 mg/kg Diprovocim-1 or 2 mg/kg alum with OVA (100 μg) was injected i.m. into mice on day 3 after tumor inoculation. Mice received a booster shot seven days after the first immunization. On day 3, 6, 9, and 12 after tumor inoculation, mice were also injected i.p. with 200 μg anti-mPD-L1.
On day 14 after tumor inoculation, tumors were harvested, minced and filtered through a 40-μm strainer to obtain single-cell suspensions. Red blood cells were lysed with RBC lysis buffer (Sigma). After pelleting, cells were stained with a mixture of antibodies for 45 minutes, including anti-mouse CD45.2-PE or CD45.2-APC (BioLegend), anti-mouse CD3-FITC (BD Biosciences), anti-mouse CD4-BV786 (BD Biosciences), anti-mouse CD8-BV510 (BioLegend), anti-mouse CD44-PE-CF594 (BioLegend), APC-conjugated H-2Kb/OVA (SIINFEKL; SEQ ID NO: XX) tetramer (Baylor College of Medicine), anti-mouse F4/80-PE (Tonbo Bioscience), anti-mouse CD11b-BV605 (BioLegend), anti-CD11c-BV711 (BD Biosciences), anti-NK1.1-BV650 (BD Biosciences). Then, the cells were washed twice with PBS. Stained cells were analyzed with an LSRII instrument (BD Biosciences) and the flow cytometry data were analyzed using FlowJo software.

[9] = test system: mice; experiment: In vivo adjuvant activity and toxicity in mice when co-injected with an immunogen; conditions: compared with LPS administration

O=C(N[C@H]1C[C@@H]1c1ccccc1)[C@@H]1CN(C(=O)c2ccc(C(=O)N3C[C@@H](C(=O)N[C@H]4C[C@@H]4c4ccccc4)[C@H](C(=O)N[C@H]4C[C@@H]4c4ccccc4)C3)cc2)C[C@H]1C(=O)N[C@H]1C[C@@H]1c1ccccc1 [Diprovocim-1, (3S,3'S,4S,4'S)-1,1′-Terephthaloylbis(N^3,N^4-bis((1S,2R)-2-phenylcyclo-propyl)pyrrolidine-3,4-dicarboxamide)]
EC50 ([1]; Homo sapiens, THP-1 cells, read-out: EC50, dose-dependent TNF production): 0.11 nM | activation of TNF production compared with Pam3CSK4 ([1]; human THP-1 cells): more potent and efficacious; also recorded: more potent than Pam3CSK4 | EC50 [2]: 6.7 nM | activity (TNF) in macrophages from MyD88-, TIRAP-, and IRAK4-deficient cells [3]: dramatically reduced | induction of TNF in TLR1- or TLR2-deficient macrophages [4]: completely absent | phosphorylation of signaling proteins and IκBα degradation [5]: induced phosphorylation of IκKα, IKKβ, p38, JNK, and ERK, as well as degradation of IκBα | adjuvant activity in CTL killing in TLR1- and/or TLR2-deficient mice [6]: abrogated | memory response on tumor re-challenge [7]: antigen-specific memory responses that protect the host from relapse of tumor growth | frequency of leukocytes (TILs) in tumors compared to vehicle+OVA ([8]; day 14, immunization day 3 and 10, plus anti-PD-L1): significantly increased | frequency of NK cells in tumors ([8]; day 14, vs vehicle+OVA): increased | frequency of OVA-specific CD8 T cells in tumors ([8]; day 14, vs vehicle+OVA): increased | frequency of total and activated (CD44high) CD4 T cells in tumors ([8]; day 14, vs vehicle+OVA): increased | frequency of total and activated (CD44high) CD8 T cells in tumors ([8]; day 14, vs vehicle+OVA): increased | overt toxicity when used as an adjuvant [9]: did not display the overt toxicity
